The results in this text go back to PubChem BioAssay AID624258 (Broad Institute, 2012).

Several values for one entry are separate records, joined by “and”; a condition that tells them apart may be missing. Equal entries are not always repeated. Activity calls are given as the source filed them. No rule for the calls is given here.

A short description of one test: SKN7 mediated toxicity in Saccharomyces cerevisiae, growth rescue counterscreen, dose confirmation (AID 624258).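 Also: growth read after three days of incubation at 30 °C; 0% = median of neutral control wells.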 Particulars: S. cerevisiae SKN7-toxicity growth rescue, plate reader; at 6.8 µM (top of the series).
As for `CC(C)NC(=O)NC(=O)COC(=O)c1ccc([N+](=O)[O-])cc1Cl`, the growth rescue activity was -6.28% (inactive).
On the same count and under the same terms, the result for `O=C(Nc1ccc(Cl)cc1)NC1CCCCC1Cc1ccco1` (stereo not given) reads 76.3% (inactive).
The same measure, in the same setting: the figure for `CCOC(=O)c1cc2c(=Cc3ccc(N(C)C)cc3)c3ccccc3n2[n+]1C` is -71.9% (inactive); for `CC(C)(C)C(=O)N1CCN(c2ccc([N+](=O)[O-])cc2Cl)CC1` it is -14.7% (inactive); for `CCc1cc(SC#N)cc(C)c1NC(=O)CCl` it is -50.8% (inactive).

The test is the same for the next values; noted with them: S. cerevisiae SKN7-toxicity growth rescue, plate reader; at 19.5 µM (top of the series).
Consider `Cc1cc(Cl)ccc1C(=O)C1CCCN(C(=O)c2cncs2)C1` (stereo not given), for which the growth rescue activity was -54.3% (inactive).
Still for that read-out and setting: the figure for `CC(=O)NC(c1cccc([N+](=O)[O-])c1)c1ccc2cccnc2c1O` (stereo not given) is -39.9% (inactive); for `O=C(Nc1nnc(-c2cccs2)o1)c1cccc(Oc2ccccc2)c1` it is -6.4% (inactive).
On the same count and under the same terms, the result for `Cc1ccc(Sc2ccc(NC(=O)CCl)cc2)cc1C` reads -34.2% (inactive).
Take `COc1ccc(C(C)(C)C)cc1NC(=O)COC(=O)c1ccc([N+](=O)[O-])o1`: the growth rescue activity was -88.2% (inactive).
Same read-out and setting: the result for `C=CCOc1ccc(-c2n[nH]c(=S)o2)cc1` reads -47.1% (inactive); that for `O=C(CSc1ccc(-c2ccccn2)nn1)NCc1ccc(F)cc1`, 1.05% (inactive); that for `Cc1ccc(Cl)cc1NC1=C/C(=N\S(=O)(=O)c2cccs2)c2ccccc2C1=O`, -24.9% (inactive).
The same measure, in the same setting: the result for `COc1ccc(N/N=C(\C#N)C(N)=O)cc1` reads -58.5% (inactive); that for `CCN(CC)c1ccc(/C=C/c2ccc3ccc(OC)cc3[n+]2CC)cc1`, -52.7% (inactive).
Same read-out and setting: the figure for `Cc1ccc(S(=O)(=O)Nc2ccc(O)c3cccnc23)cc1` is -0.63% (inactive); for `CCC(Oc1ccc(Br)cc1Cl)C(=O)Nc1nnc(C2CC2)s1` (stereo not given) it is -50.3% (inactive).
For `CCCOc1ccc2ccccc2c1/C=C1\SC(=O)NC1=O`, the growth rescue activity was -39.3% (inactive).
The same measure, in the same setting: the result for `CCCn1c(=O)c(C(=O)NCc2ccc(OC)c(OC)c2)c(O)c2ccccc21` reads -19.9% (inactive).
The same measure, in the same setting: the figure for `CCc1cc(C(=O)Nc2nc(-c3ccccn3)cs2)sc1C` is -67.6% (inactive); for `COc1cc([N+](=O)[O-])cc(/C=N/NC(=O)c2cncc(Br)c2)c1O` it is -13.3% (inactive).
Still for that read-out and setting: the figure for `CN(C)c1ccc(NC2=C(Cl)C(=O)c3ccccc3C2=O)cc1` is -12.8% (inactive); for `CN(C)c1ccc(C=c2c3cc(O)ccc3n3c2cc(-c2ccccc2)[n+]3C)cc1` it is -34.8% (inactive).
Turning to `Cc1ccsc1/C=C/c1ccc2cccc(O)c2n1`, the growth rescue activity was -50.7% (inactive).
On the same count and under the same terms, the result for `Clc1ccccc1C(c1ccccc1)(c1ccccc1)n1ccnc1` reads -48.3% (inactive); that for `N#Cc1ccc(Sc2ccccn2)c([N+](=O)[O-])c1`, 7.91% (inactive).
With `COc1ccc(O)c(C(=O)CC(=O)c2ccc(F)cc2)c1`, the growth rescue activity is -74.9% (inactive).
On the same count and under the same terms, the figure for `c1ccc(CSc2ccc(-c3ccccn3)nn2)nc1` is -28% (inactive); for `C=CCNc1nc(-c2ccccn2)nnc1-c1ccccc1` it is -28.2% (inactive); for `COc1ccc2c(c1)OC[C@H]1[C@H]2N2C(=O)c3cc(C)ccc3NC(=O)[C@@]2(C)[C@H]1c1ccccc1` it is 122% (inactive).
On the same count and under the same terms, the figure for `CC/C(=N/NC(=O)c1ccccc1O)c1c(C)[nH]n(-c2ccccc2)c1=O` is -59.4% (inactive).
On the same count and under the same terms, the figure for `Cc1c(C2(O)CCCCC2)[nH]c2ccc(C(F)(F)F)cc12` is -43.8% (inactive); for `CCOC(=O)C1=NN(c2ccccc2)C(=O)/C1=C\c1ccc(N(C)C)cc1` it is -16.7% (inactive).
Turning to `O=C1c2cccc(Cl)c2C(=O)c2c1cccc2N1CCCC1`, the growth rescue activity is 11.5% (inactive).
On the same count and under the same terms, the result for `O=S(=O)(Nc1ccc(-n2cccc2)cc1)c1ccc(Cl)c(Cl)c1` reads -92.1% (inactive).
Same read-out and setting: the result for `O=C1N(c2ccc(Cl)cc2)C(c2cccnc2)N2CCCN12` (stereo not given) reads -65.4% (inactive).
On the same count and under the same terms, the result for `Oc1c(CN2CCCC2)cc(COCc2ccccc2)c2cccnc12` reads 23.1% (inactive); that for `CCCCCCCCCCOC(=O)Cn1c(COc2ccccc2OC)[n+](C)c2ccccc21`, -82.3% (inactive).
As to `O=C(Nc1nc(-c2ccccc2)c(-c2ccccc2)o1)c1ccc(F)cc1`, the growth rescue activity is -15.6% (inactive).
As to `O=Nc1c(O)c2ccccc2c2ccccc12`, the growth rescue activity is -91.5% (inactive).
The same measure, in the same setting: the result for `CC1CCN(c2nc(-c3ccncc3)nc3ccccc23)CC1` reads -17.2% (inactive); that for `S=C(NCc1ccco1)Nc1ccc(Oc2ccc(Cl)cc2)cc1`, 26.1% (inactive); that for `COc1cc2c(cc1OC)C(C)N(C(=O)C1COc3ccccc3O1)CC2` (stereo not given), 14.6% (inactive).
Still for that read-out and setting: the figure for `Cc1onc(-c2ccccc2)c1C(=O)NC(=S)NNC(=O)c1ccc(O)cc1O` is -33.4% (inactive); for `CCc1ccc(OCc2n[nH]c(=S)n2Cc2ccccc2)cc1` it is -30.5% (inactive).
`Cc1ccc(-n2ncc(Br)c(Br)c2=O)cc1`: the growth rescue activity is 23.6% (inactive).
On the same count and under the same terms, the figure for `O=Cc1ccc(O)c2ncccc12` is -72% (inactive); for `O=c1[nH]c2c(c(=O)[nH]1)OCN(Cc1ccccc1)C2` it is -23.4% (inactive); for `CCCCCOc1ccc(CSc2n[nH]c(C)n2)cc1` it is -91.3% (inactive).
On to `O=C1c2cccc3cc([N+](=O)[O-])cc(c23)C(=O)N1CC1CCCO1` (stereo not given), for which the growth rescue activity was 23.2% (inactive).
Still for that read-out and setting: the figure for `O=[N+]([O-])c1ccc2c(c1)Cc1cc(O)ccc1-2` is 4.71% (inactive).
The same measure, in the same setting: the figure for `COc1cccc(/C=N/NC(=O)c2nc(-c3ccccc3)cc(-c3ccccc3)n2)c1O` is -39.2% (inactive); for `C[n+]1c2cc(N)ccc2cc2ccc(N)cc21` it is -24.4% (inactive) and -10% (inactive); for `O=C1OCC(CO)(CO)N=C1NNc1ccc(Cl)c(Cl)c1` it is -52.3% (inactive).
On the same count and under the same terms, the figure for `C=C(C)COc1ccc(-c2[nH]ncc2-c2ccccc2)c(O)c1` is -93.2% (inactive).
Regarding `Cc1cc(N2CCN(c3ccccc3)CC2)nc(-c2ccccc2O)n1`, the growth rescue activity is -42.6% (inactive).
For `CC[n+]1c(/C=C/C=C/c2ccc(N(C)C)cc2)sc2ccccc21`, the growth rescue activity is -38.5% (inactive).
As to `O=CC1=C(c2ccccc2)Oc2ccccc2O1`, the growth rescue activity was -88.1% (inactive).
In the case of `Cc1cc(NS(=O)(=O)c2ccc(C3CCCCC3)cc2)no1`, the growth rescue activity was -38.7% (inactive).
Same read-out and setting: the result for `Cc1nn(CCC#N)c(N)c1C1(O)C(=O)Nc2c(Cl)cc(Cl)cc21` (stereo not given) reads 12.9% (inactive).
Same read-out and setting: the figure for `CCC(NC(=S)NCc1ccc(F)cc1)c1ccc(C(C)C)cc1` (stereo not given) is 41.2% (inactive).
Consider `NC(=O)N=Nc1c2[nH]c3ccccc3nc-2c2ccccc12`, for which the growth rescue activity was 6.67% (inactive).
Still for that read-out and setting: the result for `O=C(O)c1ccccc1NC(c1ccccc1)c1ccc2cccnc2c1O` (stereo not given) reads -59.1% (inactive).
Same read-out and setting: the figure for `C=CCc1ccc(O)c(-c2ccc(O)c(CC=C)c2)c1` is -65.1% (inactive).
Same read-out and setting: the result for `O=C(COc1ccccc1F)Nc1nc(-c2ccccn2)cs1` reads -57.2% (inactive).
On to `Cc1cccc(N2CCN(C(=O)C3(S(=O)(=O)c4ccc(Cl)cc4)CC3)CC2)c1C`, for which the growth rescue activity was -38.2% (inactive).
Still for that read-out and setting: the result for `CC(C)(C)c1ccc(C(=O)NC(=S)NNC(=O)c2cccs2)cc1` reads -72.5% (inactive).
In the case of `O=c1cc(CSc2ccc(Cl)cc2)nc(-c2ccccn2)[nH]1`, the growth rescue activity is -48.1% (inactive).
Same read-out and setting: the figure for `CCOC(=O)c1ccc(-c2ccc(C3Nc4ccccc4C(=O)N3O)o2)cc1` (stereo not given) is -4.76% (inactive); for `Cc1ccc(NS(=O)(=O)c2ccc(N3CCN(c4ccc(O)cc4)CC3)c([N+](=O)[O-])c2)c(C)c1` it is -52.6% (inactive).
As to `CCc1sc(C(=O)Nc2nc(-c3ccccn3)cs2)cc1C`, the growth rescue activity is -81% (inactive).
Same read-out and setting: the figure for `O=c1c(O)c(-c2ccccc2)oc2ccccc12` is -14.5% (inactive); for `Nc1cc2c3ccccc3ccc2c2ccccc12` it is -51.9% (inactive).
Still for that read-out and setting: the result for `CCOC(=O)c1cnc(-n2nc(C)cc2C)nc1NC1CCCC1` reads -62% (inactive); that for `O=C1OC(c2ccccc2)=NC12CC2c1ccc(Cl)cc1` (stereo not given), -72.5% (inactive).
The same measure, in the same setting: the figure for `CCn1c(-c2cc(-c3ccc(C)cc3)nc3ccccc23)n[nH]c1=S` is -24.4% (inactive).
Consider `N#Cc1c(-c2ccc(Cl)cc2)n(O)c2ccccc12`, for which the growth rescue activity was -88.7% (inactive).
For `CCN(CC)C(=O)C1CCCc2c1[nH]c1ccc(Cl)cc21` (stereo not given), the growth rescue activity was -45% (inactive).
The same measure, in the same setting: the figure for `O=C(c1ccccc1)c1ccc(Cn2cc(-c3ccccc3)nn2)cc1` is 19.2% (inactive); for `CC(C)C(=O)NC(c1ccco1)c1ccc2cccnc2c1O` (stereo not given) it is -67.3% (inactive); for `O=[N+]([O-])c1cccc(C=NNc2ccc3ccccc3n2)c1O` it is -79.2% (inactive).
Still for that read-out and setting: the figure for `COC(=O)C1=C(C)NC(C)=C(C(=O)OCC(C)C)C1c1ccccc1[N+](=O)[O-]` (stereo not given) is -47.9% (inactive).
The same measure, in the same setting: the figure for `COc1nc(NC23CC4CC(CC(C4)C2)C3)nc(OC)n1` is 145% (inactive).
`CCCC(=O)NC(c1ccc(N(C)C)cc1)c1ccc2cccnc2c1O` (stereo not given): the growth rescue activity was -7.33% (inactive).
The same measure, in the same setting: the result for `CCCCc1ccc(-n2c(Cc3cccs3)n[nH]c2=S)cc1` reads -23.9% (inactive).
